# From patent US20170326232A1, “INTRATUMORAL ADMINISTRATION OF PARTICLES CONTAINING A TOLL-LIKE RECEPTOR 9 AGONIST AND A TUMOR ANTIGEN FOR TREATING CANCER” (Dynavax Technologies Corporation, priority 2016, published 2017)
# “And” between values parts separate entries of the source, which are not always exact repeats. Equal entries are not always repeated. Where two headings read alike, the source gives them in different places. Square brackets hold non-standard residues; d marks the D form. Ends that are not written are not given here. PEG24 = NCCOCCOCCOCCOCCOCCOCCOCCOCCOCCOCCOCCOCCOCCOCCOCCOCCOCCOCCOCCOCCOCCOCCOCCOCCC(=O)O; Cha = N[C@@H](CC1CCCCC1)C(=O)O
# Legend:
# Assay type in all cases: physicochemical
# [1] = Solubilization of peptide antigens in buffers and organic solvents (visual assessment); design: key to Qualitative Solubility score: 1 = fully soluble/clarity similar to water; 2 = partially soluble; 3 = insoluble
# [2] = Adsorption of CpG-ODN to aluminum hydroxide, quantified by UV absorbance at 260 nm; conditions: for D61-01 binding: co-adsorption with AH1 CII peptide; for % D61-04 Bound: Al(OH)3 1.0 mg
# [3] = Adsorption of peptide antigens to aluminum hydroxide, quantified by UV, amino acid analysis or RP-HPLC; conditions: RP-HPLC at 215 nm
# [4] = 10 mM NaOAc, 150 mM NaCl, pH 7.0
# [5] = input 0.25 mg to 1 mg aluminum hydroxide, pH 7.0
# [6] = input 0.50 mg to 1 mg aluminum hydroxide, pH 7.0
# [7] = input 1.0 mg to 1 mg aluminum hydroxide, pH 7.0
# [8] = input 1.5 mg to 1 mg aluminum hydroxide, pH 7.0
substance,measurement,setting,value
CSGLEQLESIINFEKLTEWTSSNVMEERKIKV [OVApep],solubility,"[1]; 0.1 M sodium bicarbonate buffer, 0.1 M sodium bicarbonate, pH 8 buffer, read-out: solubility",2000 to 4000 µg/mL
same,solubility,"[1]; water, PBS or sodium acetate (NaOAc) buffers",not appreciably soluble
"[PEG24]VGALEGPRNQDWLAK[Cha]VAAWTLKAAATAYRYHLLSSVYDFFVWLSC [Triple, PEG24-VGALEGPRNQDWLAKXVAAWTLKAAATAYRYHLLSSVYDFFVWLSC wherein X = L-cyclohexylalanine]",solubility,"[1]; 0.1 M sodium bicarbonate pH 8 buffer, water, PBS, sodium bicarbonate or NaOAc buffers",not appreciably soluble
same,solubility,"[1]; 6M guanidine hydrochloride pH 8.5 or 20% IPA/water (v/v), read-out: solubility",1000 to 5000 µg/mL
"5′-TCGGCGC-3′-HEG-5′-AACGTTC-3′-HEG-5′-TCGGCGC-3′ (DNA TCGGCGCAACGTTCTCGGCGC; HEG spacers, phosphorothioate linkages, chemistry not fully specified) [D61-01]",maximum bound by 1 mg of aluminum hydroxide,[2]; [4],1.0 mg
same,D61-01 Binding efficiency,"[2]; 10 mM NaOAc, 150 mM NaCl, pH 7.0, Table S3-1",71-100%
same,D61-01 binding,[2]; 2.5 mg of aluminum,86%
same,D61-01 binding,[2]; four out of five conditions,100%
same,D61-01 binding efficiencies,"[2]; co-adsorption with HPV16 peptide, two reactions",74% and 80%
same,Binding efficiency,[2]; [5],100%
same,Bound,[2]; [5],0.25 mg
same,Binding efficiency,[2]; [6],100%
same,Bound,[2]; [6],0.50 mg
same,Binding efficiency,[2]; [7],99%
same,Bound,[2]; [7],0.99 mg
same,Binding efficiency,[2]; [8],65%
same,Bound,[2]; [8],0.97 mg
HRQLQLSISSCLQQLSLLMWITQCFLPVFLAQ [NY-ESO-1142-173 OLP],Qualitative Solubility score,[1]; Acetic acid,1
same,Visual Appearance,[1]; Acetic acid,clear
same,Qualitative Solubility score,[1]; Acetone,1
same,Visual Appearance,[1]; Acetone,clear
same,Qualitative Solubility score,[1]; Ethanol,1
same,Visual Appearance,[1]; Ethanol,clear
same,Qualitative Solubility score,[1]; Formic acid,1
same,Visual Appearance,[1]; Formic acid,clear
same,Qualitative Solubility score,[1]; Isoamyl alcohol,3
same,Visual Appearance,[1]; Isoamyl alcohol,hazy
same,Qualitative Solubility score,[1]; Isopropyl acetate,3
same,Visual Appearance,[1]; Isopropyl acetate,hazy/insoluble
same,Qualitative Solubility score,[1]; Methyl acetate,3
same,Visual Appearance,[1]; Methyl acetate,hazy/insoluble
same,Qualitative Solubility score,[1]; n-Butyl acetate,3
same,Visual Appearance,[1]; n-Butyl acetate,hazy/insoluble
same,solubility after dilution of solvent,"[1]; six solvents diluted to 20% solvent/80% water (v/v), data not shown",remained visually soluble
same,(%) binding efficiency to aluminum hydroxide,[3]; 2-Butanol,100%
same,(%) binding efficiency to aluminum hydroxide,[3]; Acetic acid,100%
same,(%) binding efficiency to aluminum hydroxide,[3]; Acetone,100%
same,(%) binding efficiency to aluminum hydroxide,[3]; Ethanol,100%
same,(%) binding efficiency to aluminum hydroxide,[3]; Formic acid,100%
same,(%) binding efficiency to aluminum hydroxide,[3]; Isopropyl alcohol,100%
"5′-TCGAACGTTCGAACGTTCGAACGTTCGAAT-3′ (DNA TCGAACGTTCGAACGTTCGAACGTTCGAAT; DNA, all phosphorothioate, methylation of C not given here) [D61-04]",maximum bound by 1 mg of aluminum hydroxide,[2]; [4],1.1 mg
same,Binding efficiency,[2]; [5],100%
same,Bound,[2]; [5],0.25 mg
same,Binding efficiency,[2]; [6],100%
same,Bound,[2]; [6],0.50 mg
same,Binding efficiency,[2]; [7],89%
same,Bound,[2]; [7],0.89 mg
same,Binding efficiency,[2]; [8],73%
same,Bound,[2]; [8],1.1 mg
same,% D61-04 Bound,"[2]; pH 6.5, D61-04 input 1.0 mg",92%
same,% D61-04 Bound,"[2]; pH 6.5, D61-04 input 1.5 mg",78%
same,% D61-04 Bound,"[2]; pH 6.5, D61-04 input 2.0 mg",63%
same,% D61-04 Bound,"[2]; pH 7.0, D61-04 input 1.0 mg",91%
same,% D61-04 Bound,"[2]; pH 7.0, D61-04 input 1.5 mg",73%
same,% D61-04 Bound,"[2]; pH 7.0, D61-04 input 2.0 mg",61%
same,% D61-04 Bound,"[2]; pH 7.5, D61-04 input 1.0 mg",92%
same,% D61-04 Bound,"[2]; pH 7.5, D61-04 input 1.5 mg",74%
same,% D61-04 Bound,"[2]; pH 7.5, D61-04 input 2.0 mg",60%
